Results: PMC6934184, “Selective DNA-PKcs inhibition extends the therapeutic index of localized radiotherapy and chemotherapy” (The Journal of Clinical Investigation, 2019)

Molecular target: T1, ULK2 (Homo sapiens, UniProt Q8IYT8)
T1 construct: purchased Thermo Fisher Scientific (Life Technologies) SelectScreen
Experiment: SelectScreen LanthaScreen
Format: binding
Conditions: read-out: % displacement
Method in brief: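 NU5455 was profiled across the SelectScreen Broad panel of kinase activity and binding assays. Z'LYTE reactions such as CSF1R ran at apparent Km ATP, while the Adapta CAMK1 assay used ATP listed as 10. Values are given as percent.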

T1 sequence (Q8IYT8 whole entry): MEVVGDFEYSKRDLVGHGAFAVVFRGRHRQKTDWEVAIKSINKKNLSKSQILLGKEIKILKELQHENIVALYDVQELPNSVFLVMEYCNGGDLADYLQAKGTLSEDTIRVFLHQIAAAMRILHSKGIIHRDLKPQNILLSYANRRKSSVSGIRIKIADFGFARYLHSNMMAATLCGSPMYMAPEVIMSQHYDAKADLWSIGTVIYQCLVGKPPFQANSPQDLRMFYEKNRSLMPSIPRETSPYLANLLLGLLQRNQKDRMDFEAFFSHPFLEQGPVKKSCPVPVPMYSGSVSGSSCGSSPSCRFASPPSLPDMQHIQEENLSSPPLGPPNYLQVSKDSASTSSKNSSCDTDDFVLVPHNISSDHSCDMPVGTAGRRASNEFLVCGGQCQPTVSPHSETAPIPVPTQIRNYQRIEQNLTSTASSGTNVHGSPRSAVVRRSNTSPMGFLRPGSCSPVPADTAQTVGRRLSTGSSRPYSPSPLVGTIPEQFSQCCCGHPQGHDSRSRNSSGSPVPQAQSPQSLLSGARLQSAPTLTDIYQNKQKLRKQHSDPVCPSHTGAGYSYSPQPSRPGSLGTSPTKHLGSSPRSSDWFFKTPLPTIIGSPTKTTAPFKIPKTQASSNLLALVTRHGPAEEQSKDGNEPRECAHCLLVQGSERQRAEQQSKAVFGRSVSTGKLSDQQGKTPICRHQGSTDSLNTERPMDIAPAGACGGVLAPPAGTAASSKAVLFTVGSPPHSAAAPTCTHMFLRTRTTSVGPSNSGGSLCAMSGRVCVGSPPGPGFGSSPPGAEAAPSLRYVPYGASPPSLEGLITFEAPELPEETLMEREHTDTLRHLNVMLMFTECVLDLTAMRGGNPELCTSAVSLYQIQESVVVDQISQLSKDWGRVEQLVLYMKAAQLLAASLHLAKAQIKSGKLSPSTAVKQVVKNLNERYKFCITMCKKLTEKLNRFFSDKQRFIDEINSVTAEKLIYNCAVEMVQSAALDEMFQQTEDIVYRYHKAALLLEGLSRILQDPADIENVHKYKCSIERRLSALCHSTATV

CN(C(=O)CN1CCOCC1)c1ccc2sc3c(-c4cccc5c(=O)cc(N6CC7CCC(C6)O7)oc45)cccc3c2c1 [NU5455]
inhibition at 1 µM: 0.9%
